Data taken from patent US10590118B2, “Bicyclic heterocyclic derivatives as bromodomain inhibitors” (Orion Corporation, priority 2014, dated 2020).
Where a name gives a salt, the structure may show the parent alone.

target: T1, Bet bromodomain protein (BRD4) (Homo sapiens, UniProt O60885); assay: Bet bromodomain TR-FRET assay; assay type: binding; conditions: 300 nM acetyl histone peptide substrate, results given as Group A/B/C
T1 construct: made in house
Experimental: In-Vitro Biochemical Data of bicyclic heterocyclic derivatives in time-resolved fluorescence resonance energy transfer (TR-FRET) assay.
The Bet brommodomain TR-FRET assay has been used to identify compounds that bind to bet bromodomain and prevent its interaction with acetylated histone peptides.
In the assay, optimized concentration of in-house Bet bromodomain protein (BRD4) and 300 nM of acetyl histone peptide substrate were diluted in assay buffer (50 mM HEPES, pH: 7.5, 50 mM NaCl, 500 μM CHAPS) and were added to the positive control and test control wells in a 384 well plate. Substrate control wells have 300 nM of acetyl histone peptide substrate diluted in assay buffer. Buffer blank wells were added with assay buffer. The reaction mixture was allowed for incubation at room temperature for 30 mins. Stock solutions of test compounds at 20 mM DMSO are prepared. Compounds are serially diluted and added to the test wells in 384-well polypropylene plates. The reaction mixture was further incubated for 30 mins at room temperature on a plate shaker. 2 nM of Europium labeled streptavidn and 10 nM of XL-665 labeled antibody diluted in detection buffer (50 mM HEPES, pH: 7.5, 50 mM NaCl, 500 μM CHAPS and 800 mM KF) were added to all the wells excluding the buffer blank wells. The reaction plate was incubated for additional 30 mins at room temperature on plate shaker. The plate was read in Perkin Elmer WALLAC 1420 Multilabel Counter Victor 3 (Ex: 340 nm Em: 615 and 665 nm). The amount of displacement of the peptide was measured as ratio of specific 665 nm energy transfer signal to 615 nm signals. The compounds IC50 was determined by fitting the dose response data to sigmoid curve fitting equation using Graph Pad Prism software V5.

`COc1cc2c(ccc(=O)n2Cc2ccccn2)cc1-c1ccc(O)nc1` [Compound 61, 6-(6-hydroxypyridin-3-yl)-7-methoxy-1-(pyridin-2-ylmethyl)quinolin-2(1H)-one] and `COc1cc2c(ccc(=O)n2Cc2ccccn2)cc1-c1cnoc1C` [Compound 63, 7-methoxy-6-(5-methylisoxazol-4-yl)-1-(pyridin-2-ylmethyl)quinolin-2(1H)-one] cannot be ordered by IC50: > 3000 nM for the first, > 3000 nM for the second.

`COc1cc2c(ccc(=O)n2Cc2ccccn2)cc1-c1c(C2CC2)noc1C` [Compound 62, 6-(3-cyclopropyl-5-methylisoxazol-4-yl)-7-methoxy-1-(pyridin-2-ylmethyl)quinolin-2(1H)-one] and `C=CCOc1cc2c(ccc(=O)n2Cc2ccccn2)cc1-c1c(C)noc1C` [Compound 79, 7-(allyloxy)-6-(3,5-dimethylisoxazol-4-yl)-1-(pyridin-2-ylmethyl)quinolin-2(1H)-one] cannot be ordered by IC50: ≤ 1000 nM for the first, ≤ 1000 nM for the second.

`COc1cc2c(ccc(=O)n2Cc2ccccn2)cc1-c1conc1C` [Compound 64, 7-methoxy-6-(3-methylisoxazol-4-yl)-1-(pyridin-2-ylmethyl)quinolin-2(1H)-one] and `COc1cc2c(ccc(=O)n2Cc2ccccn2)cc1-c1c(C)n[nH]c1C` [Compound 66, 6-(3,5-dimethyl-1H-pyrazol-4-yl)-7-methoxy-1-(pyridin-2-ylmethyl)quinolin-2(1H)-one] cannot be ordered by IC50: ≤ 1000 nM for the first, ≤ 1000 nM for the second.

First: COc1cc2c(cc1-c1c(C)n[nH]c1C)OCC(=O)N2Cc1ccc(Cl)cc1 [Compound 65, 4-(4-chlorobenzyl)-7-(3,5-dimethyl-1H-pyrazol-4-yl)-6-methoxy-2H-benzo[b][1,4]oxazin-3(4H)-one]
Second: COc1cc2c(cc1Nc1c(C)noc1C)OCC(=O)N2Cc1ccc(Cl)cc1 [Compound 95, 4-(4-chlorobenzyl)-7-((3,5-dimethylisoxazol-4-yl)amino)-6-methoxy-2H-benzo[b][1,4]oxazin-3(4H)-one]
The IC50 of the first is lower: ≤ 1000 nM for the first, > 3000 nM for the second. The first is the more potent here.

`COc1cc2c(ccc(=O)n2Cc2ccc(Cl)nc2)cc1-c1c(C)noc1C` [Compound 67, 1-((6-chloropyridin-3-yl)methyl)-6-(3,5-dimethylisoxazol-4-yl)-7-methoxyquinolin-2(1H)-one] and `Cc1noc(C)c1-c1cc2ccc(=O)n(Cc3ccc(Cl)cn3)c2cc1O` [Compound 73, 1-((5-chloropyridin-2-yl)methyl)-6-(3,5-dimethylisoxazol-4-yl)-7-hydroxyquinolin-2(1H)-one] cannot be ordered by IC50: ≤ 1000 nM for the first, ≤ 1000 nM for the second.

`COc1cc2c(cc1-c1c(C)noc1C)cc(C1CCCCC1)c(=O)n2Cc1ccccn1` [Compound 68, 3-cyclohexyl-6-(3,5-dimethylisoxazol-4-yl)-7-methoxy-1-(pyridin-2-ylmethyl)quinolin-2(1H)-one] and `COc1cc2c(cc1-c1c(C)noc1C)cc(C1CCCCC1)c(=O)n2Cc1cccnc1` [Compound 69, 3-cyclohexyl-6-(3,5-dimethylisoxazol-4-yl)-7-methoxy-1-(pyridin-3-ylmethyl)quinolin-2(1H)-one] cannot be ordered by IC50: ≤ 1000 nM for the first, ≤ 1000 nM for the second.

`COc1cc2c(cc1-c1c(C)noc1C)OCC(=O)N2Cc1ccc(O)nc1` [Compound 70] and `COCCOc1cc2c(cc1-c1c(C)noc1C)OCC(=O)N2Cc1ccncc1` [Compound 71, 7-(3,5-dimethylisoxazol-4-yl)-6-(2-methoxyethoxy)-4-(pyridin-4-ylmethyl)-2H-benzo[b][1,4]oxazin-3(4H)-one] cannot be ordered by IC50: > 3000 nM for the first, > 3000 nM for the second.

`Cc1noc(C)c1-c1cc2ccc(=O)n(Cc3ccccn3)c2cc1O` [Compound 72, 6-(3,5-dimethylisoxazol-4-yl)-7-hydroxy-1-(pyridin-2-ylmethyl)quinolin-2(1H)-one] and `Cc1noc(C)c1-c1cc2ccc(=O)n(Cc3ccccn3)c2cc1OCCO` [Compound 80, 6-(3,5-dimethylisoxazol-4-yl)-7-(2-hydroxyethoxy)-1-(pyridin-2-ylmethyl)quinolin-2(1H)-one] cannot be ordered by IC50: ≤ 1000 nM for the first, ≤ 1000 nM for the second.

`Cc1noc(C)c1-c1cc2ccc(=O)n(Cc3ccccn3)c2cc1OCC(F)(F)F` [Compound 74, 6-(3,5-dimethylisoxazol-4-yl)-1-(pyridin-2-ylmethyl)-7-(2,2,2-trifluoroethoxy)quinolin-2(1H)-one] and `Cc1noc(C)c1-c1cc2ccc(=O)n(Cc3ccccn3)c2cc1OC(F)(F)F` [Compound 85, 6-(3,5-dimethylisoxazol-4-yl)-1-(pyridin-2-ylmethyl)-7-(trifluoromethoxy)quinolin-2(1H)-one] cannot be ordered by IC50: ≤ 1000 nM for the first, 1000 to 3000 nM for the second.

`Cc1noc(C)c1-c1cc2ccc(=O)n(Cc3ccccn3)c2cc1OCCN1CCOCC1` [Compound 75, 6-(3,5-dimethylisoxazol-4-yl)-7-(2-morpholinoethoxy)-1-(pyridin-2-ylmethyl)quinolin-2(1H)-one] and `Cc1noc(C)c1-c1cc2ccc(=O)n(Cc3ccccn3)c2cc1OCCN1CCCC1` [Compound 81, 6-(3,5-dimethylisoxazol-4-yl)-1-(pyridin-2-ylmethyl)-7-(2-(pyrrolidin-1-yl)ethoxy)quinolin-2(1H)-one] fall in the same range of IC50: 1000 to 3000 nM for the first, 1000 to 3000 nM for the second.

First: Cc1noc(C)c1-c1cc2ccc(=O)n(Cc3ccccn3)c2cc1OCCN(C)C [Compound 76, 7-(2-(dimethylamino)ethoxy)-6-(3,5-dimethylisoxazol-4-yl)-1-(pyridin-2-ylmethyl)quinolin-2(1H)-one]
Second: CCCCOc1cc2c(ccc(=O)n2Cc2ccccn2)cc1-c1c(C)noc1C [Compound 78, 7-butoxy-6-(3,5-dimethylisoxazol-4-yl)-1-(pyridin-2-ylmethyl)quinolin-2(1H)-one]
The IC50 of the first is higher: > 3000 nM for the first, ≤ 1000 nM for the second.

`Cc1noc(C)c1-c1cc2ccc(=O)n(Cc3ccccn3)c2cc1OCC1CCNCC1` [Compound 77, 6-(3,5-dimethylisoxazol-4-yl)-7-(piperidin-4-ylmethoxy)-1-(pyridin-2-ylmethyl)quinolin-2(1H)-one] and `Cc1noc(C)c1-c1cc2ccc(=O)n(Cc3ccccn3)c2cc1OCCC1CCNCC1` [Compound 88, 6-(3,5-dimethylisoxazol-4-yl)-7-(2-(piperidin-4-yl)ethoxy)-1-(pyridin-2-ylmethyl)quinolin-2(1H)-one] cannot be ordered by IC50: ≤ 1000 nM for the first, 1000 to 3000 nM for the second.

`Cc1noc(C)c1-c1cc2ccc(=O)n(Cc3ccccn3)c2cc1OCCN1CCNCC1` [Compound 82, 6-(3,5-dimethylisoxazol-4-yl)-7-(2-(piperazin-1-yl)ethoxy)-1-(pyridin-2-ylmethyl)quinolin-2(1H)-one] and `Cc1noc(C)c1-c1cc2ccc(=O)n(Cc3ccccn3)c2cc1OCCC1CCNC1` (centres unmarked) [Compound 89, 6-(3,5-dimethylisoxazol-4-yl)-1-(pyridin-2-ylmethyl)-7-(2-(pyrrolidin-3-yl)ethoxy)quinolin-2(1H)-one hydrochloride] cannot be ordered by IC50: 1000 to 3000 nM for the first, ≤ 1000 nM for the second.

`Cc1noc(C)c1-c1cc2ccc(=O)n(Cc3ccccn3)c2cc1OCc1ccncc1` [Compound 83, 6-(3,5-dimethylisoxazol-4-yl)-1-(pyridin-2-ylmethyl)-7-(pyridin-4-ylmethoxy)quinolin-2(1H)-one] and `Cc1noc(C)c1-c1cc2ccc(=O)n(Cc3ccccn3)c2cc1OCCCO` [Compound 84, 6-(3,5-dimethylisoxazol-4-yl)-7-(3-hydroxypropoxy)-1-(pyridin-2-ylmethyl)quinolin-2(1H)-one] cannot be ordered by IC50: ≤ 1000 nM for the first, ≤ 1000 nM for the second.

First: Cc1noc(C)c1-c1cc2ccc(=O)n(Cc3ccccn3)c2cc1OC1CCNCC1 [Compound 86, 6-(3,5-dimethylisoxazol-4-yl)-7-(piperidin-4-yloxy)-1-(pyridin-2-ylmethyl)quinolin-2(1H)-one]
Second: Cc1noc(C)c1-c1cc2ccc(=O)n(Cc3ccccn3)c2cc1OCC1CCOCC1 [Compound 87, 6-(3,5-dimethylisoxazol-4-yl)-1-(pyridin-2-ylmethyl)-7-((tetrahydro-2H-pyran-4-yl)methoxy)quinolin-2(1H)-one]
The IC50 of the first is higher: > 3000 nM for the first, 1000 to 3000 nM for the second.

Going from `CCC(=O)N1CCC(CN2C(=O)COc3cc(-c4c(C)noc4C)c(OC)cc32)CC1` [Compound 90, 7-(3,5-dimethylisoxazol-4-yl)-6-methoxy-4-((1-propionylpiperidin-4-yl)methyl)-2H-benzo[b][1,4]oxazin-3(4H)-one] to `COc1cc2c(cc1NC(=O)c1c(C)noc1C)OCC(=O)N2Cc1ccc(Cl)cc1` [Compound 94, N-(4-(4-chlorobenzyl)-6-methoxy-3-oxo-3,4-dihydro-2H-benzo [b][1,4]oxazin-7-yl)-3,5-dimethylisoxazole-4-carboxamide], the IC50 rises from ≤ 1000 nM to > 3000 nM.

`COc1cc2c(ccc(=O)n2Cc2ccccn2)cc1-n1c(C)c[nH]c1=O` [Compound 91, 7-methoxy-6-(5-methyl-2-oxo-2,3-dihydro-1H-imidazol-1-yl)-1-(pyridin-2-ylmethyl)quinolin-2(1H)-one] and `COc1cc2c(ccc(=O)n2Cc2ccccn2)cc1C1=C(C)C(=O)NC1=O` [Compound 92, 3-(7-methoxy-2-oxo-1-(pyridin-2-ylmethyl)-1,2-dihydroquinolin-6-yl)-4-methyl-1H-pyrrole-2,5-dione] cannot be ordered by IC50: > 3000 nM for the first, > 3000 nM for the second.

In the case of `COc1cc2c(cc1-c1c(C)noc1C)ncc(=O)n2Cc1ccccn1` [Compound 93, 6-(3,5-dimethylisoxazol-4-yl)-7-methoxy-1-(pyridin-2-ylmethyl)quinoxalin-2(1H)-one], the IC50 is reported as ≤ 1000 nM.
